Where a name gives a salt, the structure may show the parent alone.
Assays:
[1] = target: T1, recombinant guanylate cyclase reporter cell line (Rattus norvegicus, UniProt P19686+P20595); test: Effect on a recombinant guanylate cyclase reporter cell line; format: cell-based; settings: recombinant guanylate cyclase reporter cell line (Wunder et al. 2005)
T1 construct: expressed in transfected cells
T1 sequence (P19686 1-690): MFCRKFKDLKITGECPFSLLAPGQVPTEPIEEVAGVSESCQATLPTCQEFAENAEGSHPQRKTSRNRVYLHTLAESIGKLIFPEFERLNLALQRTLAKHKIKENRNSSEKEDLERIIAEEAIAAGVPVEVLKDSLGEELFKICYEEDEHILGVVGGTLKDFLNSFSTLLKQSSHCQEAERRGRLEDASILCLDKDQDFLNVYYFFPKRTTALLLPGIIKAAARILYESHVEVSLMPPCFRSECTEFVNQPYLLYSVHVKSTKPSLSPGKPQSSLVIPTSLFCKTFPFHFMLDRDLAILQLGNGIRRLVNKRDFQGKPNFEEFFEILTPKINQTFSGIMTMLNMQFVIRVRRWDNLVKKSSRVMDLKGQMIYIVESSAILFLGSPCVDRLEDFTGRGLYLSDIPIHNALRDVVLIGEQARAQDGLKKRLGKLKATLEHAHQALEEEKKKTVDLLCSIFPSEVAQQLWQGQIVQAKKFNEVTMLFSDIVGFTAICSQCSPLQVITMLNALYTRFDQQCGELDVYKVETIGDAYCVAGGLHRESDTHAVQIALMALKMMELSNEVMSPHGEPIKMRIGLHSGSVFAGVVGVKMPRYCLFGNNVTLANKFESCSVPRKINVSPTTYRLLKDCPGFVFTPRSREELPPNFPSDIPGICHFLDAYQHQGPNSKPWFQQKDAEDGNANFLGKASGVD
T1 sequence (P20595 1-619): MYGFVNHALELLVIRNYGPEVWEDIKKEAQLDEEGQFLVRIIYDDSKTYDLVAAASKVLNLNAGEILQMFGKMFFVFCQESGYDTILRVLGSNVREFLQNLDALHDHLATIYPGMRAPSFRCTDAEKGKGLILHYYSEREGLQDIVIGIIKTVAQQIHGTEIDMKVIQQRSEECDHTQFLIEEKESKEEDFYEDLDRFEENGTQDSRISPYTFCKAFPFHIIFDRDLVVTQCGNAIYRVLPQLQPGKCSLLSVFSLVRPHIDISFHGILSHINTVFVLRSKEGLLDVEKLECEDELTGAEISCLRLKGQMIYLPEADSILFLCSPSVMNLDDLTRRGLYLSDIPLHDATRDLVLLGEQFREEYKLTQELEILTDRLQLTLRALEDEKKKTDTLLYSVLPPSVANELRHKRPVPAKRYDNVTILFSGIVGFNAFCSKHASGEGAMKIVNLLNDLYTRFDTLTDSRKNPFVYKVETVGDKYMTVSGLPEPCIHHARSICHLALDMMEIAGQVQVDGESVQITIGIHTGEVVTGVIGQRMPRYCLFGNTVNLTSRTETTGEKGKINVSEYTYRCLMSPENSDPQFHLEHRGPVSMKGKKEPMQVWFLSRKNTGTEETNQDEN
Experimental: B-2. Effect on a Recombinant Guanylate Cyclase Reporter Cell Line
The cellular activity of the compounds according to the invention is determined using a recombinant guanylate cyclase reporter cell line, as described in F. Wunder et al., Anal. Biochem. 339, 104-112 (2005).

aorta rings = test: Vasorelaxant action in vitro (phenylephrine-contracted rabbit aorta rings); settings: Oryctolagus cuniculus, phenylephrine-induced contraction, organ bath 37° C., 0.1% DMSO, read-out: IC50 (concentration needed to reduce the magnitude of the control contraction by 50%)
Experimental: B-1. Vasorelaxant Action In Vitro
Rabbits are stunned by a blow to the neck and exsanguinated. The aorta is removed, freed from adhering tissue and divided into rings of a width of 1.5 mm. The rings are placed individually under an initial tension in 5 ml organ baths with Krebs-Henseleit solution which is at 37° C., is gassed with carbogen and has the following composition (in each case mM): sodium chloride 119; potassium chloride: 4.8; calcium chloride dihydrate: 1; magnesium sulfate heptahydrate: 1.4; potassium dihydrogenphosphate: 1.2; sodium bicarbonate: 25; glucose: 10. The contractile force is determined with Statham UC2 cells, amplified and digitalized using A/D transducers (DAS 1802 HC, Keithley Instruments Munich), and recorded in parallel on linear recorders. To obtain a contraction, phenylephrine is added to the bath cumulatively in increasing concentration. After several control cycles, the substance to be investigated is added in each further run in increasing dosage in each case, and the height of the contraction achieved is compared with the height of the contraction reached in the last preceding run. This is used to calculate the concentration needed to reduce the magnitude of the control value by 50% (IC50 value). The standard administration volume is 5 μl; the DMSO content in the bath solution corresponds to 0.1%.

Row | Compound | MEC (minimum effective concentration) [1] [µM] | IC50 (aorta rings) [nM]
1 | CCOC(=O)Nc1c(N)nc(-c2nc(Cc3ccccc3F)n3ncccc23)nc1N [Example 5, Ethyl {4,6-diamino-2-[7-(2-fluorobenzyl)imidazo[1,5-b]pyridazin-5-yl]pyrimidin-5-yl}carbamate formate] | 0.3 | 200
2 | Nc1nc(N)nc(-c2nc(Cc3ccccc3F)n3ncccc23)n1 [Example 1, 6-[7-(2-Fluorobenzyl)imidazo[1,5-b]pyridazin-5-yl]-1,3,5-triazine-2,4-diamine formate] | 0.03 | 130
3 | CCN(C(=O)OC)c1c(N)nc(-c2nc(Cc3ccccc3F)n3ncccc23)nc1N [Example 8, Methyl {4,6-diamino-2-[7-(2-fluorobenzyl)imidazo[1,5-b]pyridazin-5-yl]pyrimidin-5-yl}ethylcarbamate formate] | 0.1 | 152

The next lines start with the values.

Row | MEC (minimum effective concentration) [1] [µM] | IC50 (aorta rings) [nM] | Compound
4 | 0.01 | 171 | COC(=O)N(Cc1ccccc1)c1c(N)nc(-c2nc(Cc3ccccc3F)n3ncccc23)nc1N [Example 15, Methyl benzyl{4,6-diamino-2-[7-(2-fluorobenzyl)imidazo[1,5-b]pyridazin-5-yl]pyrimidin-5-yl}carbamate formate]
5 | 0.1 | 81 | COC(=O)N(Cc1cccc(F)c1)c1c(N)nc(-c2nc(Cc3ccccc3F)n3ncccc23)nc1N [Example 19, Methyl {4,6-diamino-2-[7-(2-fluorobenzyl)imidazo[1,5-b]pyridazin-5-yl]pyrimidin-5-yl}(3-fluorobenzyl)carbamate formate]
6 | 0.3 | 422 | Nc1nc(-c2nc(Cc3ccccc3F)n3ncccc23)nc(N)c1NC(=O)OC1CCC1 [Example 11, Cyclobutyl {4,6-diamino-2-[7-(2-fluorobenzyl)imidazo[1,5-b]pyridazin-5-yl]pyrimidin-5-yl}carbamate formate]
